Data: patent US6969711B2, “Cyclic diamine compounds and medicine containing the same” (Kowa Company, Ltd., priority 1997, dated 2005)

First: CCCCCCCN(CCN1CCN(CCSc2nc3cccc(C(F)(F)F)c3o2)CC1)C(=O)Nc1c(C(C)C)cc(O)cc1C(C)C.Cl
Second: CCCCCCCN(CCN1CCN(CCSc2nc3ccccc3o2)CC1)C(=O)Nc1c(SCC)cc(C)nc1SCC.Cl.Cl
The melting point of the first is lower: 95 to 97 °C for the first, 124 to 127 °C for the second.

Compared with `CCCCCCCN(CCN1CCN(CCCSc2nc3ccccc3o2)CC1)C(=O)Nc1c(SC)cc(C)nc1SC.Cl.Cl`, `CCCCCCCN(CCN1CCN(CCSc2nc3ccccc3s2)CC1)C(=O)Nc1c(SCC)cc(C)nc1SCC.Cl.Cl` is lower in melting point: 208 to 210 °C for the first, 136 to 138 °C for the second.

Compared with `CCCCCCCN(CCN1CCN(CCSc2nc3ccccc3[nH]2)CC1)C(=O)Nc1c(SCC)cc(C)nc1SCC.Cl.Cl`, `Cc1cc(SC(C)C)c(NC(=O)CN2CCN(CCSc3nc4ccccc4o3)CC2)c(SC(C)C)n1.Cl.Cl` is higher in melting point: 134 to 137 °C for the first, 159 to 164 °C for the second.

First: CCSc1cc(C)nc(SCC)c1NC(=O)CN1CCN(CCSc2nc3ncccc3o2)CC1.O=C(O)/C=C\C(=O)O.O=C(O)/C=C\C(=O)O
Second: Cc1cc(SC(C)C)c(NC(=O)CN2CCN(CCSc3nc4ncccc4o3)CC2)c(SC(C)C)n1.Cl.Cl
The melting point of the first is lower: 148 to 149 °C for the first, 170 to 172 °C for the second.

First: CC(C)c1ccc(NS(C)(=O)=O)c(C(C)C)c1NC(=O)CN1CCN(CCSc2nc3cccc(C(F)(F)F)c3o2)CC1.O=C(O)/C=C\C(=O)O.O=C(O)/C=C\C(=O)O
Second: CC(C)c1cc(OC(=O)[C@H](C)N)cc(C(C)C)c1NC(=O)CN1CCN(CCSc2nc3cccc(C(F)(F)F)c3o2)CC1.O=C(O)C(F)(F)F.O=C(O)C(F)(F)F.O=C(O)C(F)(F)F
The melting point of the first is higher: 172 to 174 °C for the first, 124 to 126 °C for the second.

First: CC(C)c1cc(OC(=O)[C@H](C)N)cc(C(C)C)c1NC(=O)CN1CCN(CCSc2nc3ccccc3o2)CC1.O=C(O)C(F)(F)F.O=C(O)C(F)(F)F.O=C(O)C(F)(F)F
Second: CCOP(=O)(OCC)Oc1cc(C(C)C)c(NC(=O)CN2CCN(CCSc3nc4ccccc4o3)CC2)c(C(C)C)c1
The melting point of the first is higher: 183 to 184 °C for the first, 108 to 109 °C for the second.

Compared with `CSc1cc(C)nc(SC)c1NC(=O)CCN1CCN(CCCSc2nc3ncccc3o2)CC1.Cl.Cl`, `Cc1cc(SC(C)C)c(NC(=O)CN2CCN(CCCSc3nc4ccccc4o3)CC2)c(SC(C)C)n1.Cl.Cl` is lower in melting point: 224 to 227 °C for the first, 178 to 181 °C for the second.

First: Cc1cc(SC(C)C)c(NC(=O)CN2CCN(CCSc3nc4ccccc4s3)CC2)c(SC(C)C)n1.Cl.Cl
Second: CC(C)c1cccc(C(C)C)c1NC(=O)CN1CCN(CCSc2nc3ccccc3s2)CC1 [Example 2, 2-[4-[2-(benzothiazol-2-ylthio)ethyl]-piperazin-1-yl]-N-(2,6-diisopropylphenyl)acetamide]
The melting point of the first is lower: 139 to 142 °C for the first, 170 to 171 °C for the second.

Compared with `CSc1ncccc1NC(=O)CN1CCN(CCSc2nc3ccccc3o2)CC1.Cl.Cl`, `CSc1nc(C)ccc1NC(=O)CN1CCN(CCSc2nc3ccccc3o2)CC1.Cl.Cl` is higher in melting point: 186 to 189 °C for the first, 200 to 203 °C for the second.

First: COc1ccc(C(C)C)c(NC(=O)CN2CCN(CCSc3nc4ccccc4o3)CC2)c1C(C)C.Cl.Cl
Second: COC(=O)c1cccc2nc(SCCN3CCN(CC(=O)Nc4c(C(C)C)cccc4C(C)C)CC3)oc12 [Example 4, 2-[4-[2-(7-methoxycarbonylbenzoxazol-2-ylthio)ethyl]-piperazin-1-yl]-N-(2,6diisopropylphenyl)acetamide]
The melting point of the first is higher: 218 to 222 °C for the first, 159 to 161 °C for the second.

`CC(C)c1cccc(C(C)C)c1NC(=O)CN1CCN(CCCSc2nc3ccccc3s2)CC1` [Example 8, 2-[4-[3-(benzothiazol-2-ylthio)propyl]piperazin-1-yl]-N-(2,6-diisopropylphenyl)acetamide] gave a melting point of 113 to 115 °C.

With `CC(C)c1cccc(C(C)C)c1NC(=O)CN1CCN(CCSc2nc3ccccc3[nH]2)CC1` [Example 3, 2-[4-[2-(benzimidazol-2-ylthio)ethyl]-piperazin-1-yl]-N-(2,6-diisopropylphenyl)acetamide] the melting point was 207 °C (dec.).
